Data from article PMC10762078, “Role of UPF1-LIN28A interaction during early differentiation of pluripotent stem cells” (Nature Communications, 2024).
Ends that are not written are not given here.

Legend:
[1] = tested on: HeLa, PA-1 and CHA15 cells; test: Cell-penetrating efficiency of CPP-FITC by confocal microscopy; type: cell-based; conditions: PA-1, CHA15
Description: (§1) For CPP-conjugated peptide delivery, HeLa, 293T, and PA-1 cells were incubated with CPP-conjugated peptides or CPP-FITC at 2 μM in DMEM with 10% FBS for 12 h a day before cell harvest. hPSCs were treated with CPP-conjugated peptides at 10 μM in mTeSR Plus Medium, and the peptide-containing medium was changed every day over 10 days. The ROCK inhibitor (Tocris Bioscience, Y-27632) treated-hPSCs were dissociated into single cells using Accutase (Merck, SCR005) and differentiated into ectoderm, mesoderm, and endoderm using the STEMdiff Trilineage Differentiation Kit ([…] Technologies, 05230) following the manufacturer’s protocol. Differentiated cells treated with CPP-conjugated peptides were analysed at 0, 3, and 5 days for ectoderm and endoderm, and at 0, 3, and 4 days for mesoderm.
Immunofluorescence staining, proximity ligation assay imaging, and cell-penetrating efficiency of CPP-FITC were imaged with a confocal laser scanning microscope (Leica, TSC SP5) or immunofluorescence microscope (Leica, DM5000B). Z-stacks were captured, with sections spanning the entire cell. The LAS X Life Science program was used to obtain the maximum intensity projections and cross-sections of the confocal images.
DAPI FITC Merge DAPI FITC Merge CHA15 H9 Pro2 H9
No peptide CPP-FITC Calnexin
For 2-day treatm ent For 4-day treatm ent […]
Supplementary Fig. 5 a HeLa, PA- 1, and CHA15 wer e treated with CPP-FITC. […]

[2] = tested on: CHA15 cells transcriptome / NMD targets; test: RNA-seq of CPP-peptide-treated CHA15 cells (NMD targets, SDGs; Fig. 6a, b, d; Supplementary Fig. 6a; Supplementary Data 2); type: cell-based, Homo sapiens; conditions: CHA15, P2 vs P1 plot (Fig. 6d)
Description: as §1, with “and the peptide-containing medium was changed every day over 10 days.” left out
Total RNA concentration was calculated using Quant-IT RiboGreen (Invitrogen, R11490). To assess the integrity of the total RNA, samples were run on a TapeStation RNA screentape (Agilent). Only high-quality RNA preparations with RNA integrity number greater than 7.0 were used for the RNA library construction. A library was independently prepared with 1 μg of total RNA from each sample using the Illumina TruSeq Stranded mRNA Sample Prep Kit (Illumina, 20020594). The first step in the workflow involves purifying poly‐A-containing mRNA molecules using poly‐T‐attached magnetic beads. Following purification, mRNA was fragmented into small pieces using divalent cations at elevated temperatures. The cleaved RNA fragments were copied into first-strand cDNA using SuperScript II reverse transcriptase (Invitrogen, 18064022) and random primers. This was followed by second-strand cDNA synthesis using DNA polymerase I, RNase H, and dUTP. These cDNA fragments underwent an end repair process, adding a single ‘A’ base and ligating the adapters. The products were purified and enriched via PCR to create the final cDNA library. The libraries were quantified using the KAPA Library Quantification Kits for Illumina Sequencing platforms according to the qPCR Quantification Protocol Guide (KAPA BIOSYSTEMS, KR0405) and qualified using the TapeStation D1000 ScreenTape (Agilent). Indexed libraries were then submitted to an Illumina NovaSeq (Illumina), and Macrogen Inc. performed paired-end (2 × 100 bp) sequencing.
We pre-processed the raw reads from the sequencer to remove low-quality reads and adapter sequences before analysis and aligned the processed reads to Homo sapiens (GRCh37) using HISAT v2.1.0[52]. HISAT utilises two indices for alignment (a global whole-genome index and tens of thousands of small local indexes). These two types of indices are constructed using the same Burrows-Wheeler transform (BWT)/graph FM index (GFM) as Bowtie2. The reference genome sequence of Homo sapiens (GRCh37) and the annotation data were downloaded from the NCBI database. Transcript assembly was processed using StringTie v1.3.4d[53],[54]. […] Differentially expressed genes (DEGs) were analysed by ratio of FPKM or using DESeq2 with read counts. Log2 fold-change value of the NMD targets[25],[32], three germ layer markers, miRNA targets, or SDGs was converted into cumulative frequency curve using the R function, ‘ecdf’ (version 4.0.5). Gene functional classification and Gene ontology (GO) were performed using g:Profiler[56].

[3] = tested on: let-7a, let-7g, miR-16-5p and their targets in CHA15 cells; test: RT-qPCR of mature LIN28A-regulated miRNAs and CDF of let-7-5p / miR-16-5p target mRNAs (Supplementary Fig. 6f); type: cell-based, human; conditions: Fig. s6f, cumulative curves; P2/P1; Asymptotic two-sample Kolmogorov-Smirnov test, two-sided
Description: cDNA was synthesised using RevertAid Reverse Transcriptase (Thermo Fisher Scientific, EP0441) with synthesised random hexamer (Macrogen) for total RNA or stem-loop primers for miRNA. For RT-qPCR reactions, the SensiFAST SYBR No-ROX kit (Meridian Bioscience) was used according to the manufacturer’s protocol. All data analysis and visualisation were conducted using R 3.6.1 [www.r-project.org] or GraphPad Prism 10. RT primers for miRNA and RT-qPCR primer sequences are provided in Supplementary Data 6.
Genes regulated by miRNA let-7-5p and miR-16-5p were determined by TargetScanHuman. Among miRNA targets sorted by cumulative weighted context++ score (CWCS)[57], the 100 top genes were selected and analysed using CDF. […]
Scatter
(bottom panel), respectively. f Levels of m ature endogenous m iRNAs in CHA15 cells, which were regulated by LIN28A, were assessed using RT -qPCR. Cum ulative f raction of log2 fold change in the expression of genes regulated by let-7-5p and m iR-16- 5p was shown as CDF graphs. T he relative level of m RNA was norm alised to that of U6 snRNA in (c, d, and f). K–S tests were used for e and f. Unpaired Student’s t-test was used for c , d, and f . * p < 0.05, ** p < 0.01, *** p < 0.001. Exact p -values were provided in Source data. Data are presented as m ean values ± SEM. All statistical test used were two- sided. T he m inim um num ber of independent biological replicate experim ents was a and e n = 2, b–d and f n = 3. T he experim ents were conducted three tim es, each iteration producing consistent results.

His-LIN28A [4] = target: T1, His-LIN28A (Homo sapiens, UniProt Q9H9Z2); test: SPR analyte-ligand binding screening of eight peptides (P1-P8); conditions: SPR screening at 15 μM, 3 min association, 6 min dissociation
T1 construct: purchased LS-bio LS-G637
T1 sequence (Q9H9Z2 1-209): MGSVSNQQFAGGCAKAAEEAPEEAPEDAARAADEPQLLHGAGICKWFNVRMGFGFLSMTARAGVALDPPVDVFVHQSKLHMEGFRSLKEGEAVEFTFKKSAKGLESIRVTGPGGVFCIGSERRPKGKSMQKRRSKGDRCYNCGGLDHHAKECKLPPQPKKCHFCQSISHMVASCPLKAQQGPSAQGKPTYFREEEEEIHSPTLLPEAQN
Description: For ligand immobilisation, the nitrilotriacetic acid (NTA) surface gold sensor chip (icluebio) was activated with 5 mM NiCl2 (Xantec) at a flow rate of 30 μL/min, following equalisation with 1× HBS-T buffer. His-LIN28A (LS-bio, LS-G637) was used as a ligand protein and was applied to a sensor chip at a flow rate of 10 μL/min for 40 min after dilution in 1× HEPES-buffered saline (HBS-T) buffer at a 1/20 ratio. Approximately 1000 resonance units (RU) were bonded to the sensor chip after ligand immobilisation. RU was measured using iMSPR-ProX (icluebio). An indigenous NTA sensor chip was used as a reference channel.
Analyte-ligand binding screening was performed by tethering the ligand and reference channels in the connected mode. […] After equalisation with 1× HBS-T buffer, the sensor chip was treated with each peptide for 3 min and then for 6 min with 1× HBS-T buffer for peptide dissociation.

His-LIN28A [5] = target: T2, His-LIN28A (UniProt Q9H9Z2 1-209); test: SPR
T2 chain: T1 sequence (Q9H9Z2 1-209)

His-LIN28A [6] = target: T2, His-LIN28A; test: SPR

CPP-FITC: CPP conjugated to FITC, used to evaluate cell-penetrating ability in cells (KKKWCRKKK; also: FITC conjugate)
intracellular distribution [1]: distribution of CPP-FITC in the cytoplasm

KKKWCRKKKMPELQKLQQLKDE [CPP-P2, CPP conjugated to P2; negative control, reference compound]
ACADL expression (dot plot) [2]: -0.6893
AOC1 expression (dot plot) [2]: -1.502
BLOC1S5-TXNDC5 expression (dot plot) [2]: -0.1425
TRIM39-RPP21 expression (dot plot) [2]: 0.7164
let-7-5p targets, log2FC cumulative curve: Kolmogorov-Smirnov D [3]: 0.07965
miR-16-5p targets, log2FC cumulative curve: Kolmogorov-Smirnov D [3]: 0.2271

N-STSFDRMQSALKTFAVD-C [P4, peptide derived from the UPF1 (419–700) domain]
binding affinity vs others (His-LIN28A [4]): slightly

SSADEKRYRALKRTAERELLMNA [P8]
koff (His-LIN28A [5]): 0.0137 s⁻¹
Kd (His-LIN28A [6]): 5.2 µM
